IC50 data for five compounds are collected here from ChEMBL document CHEMBL5050852, “Kif18a inhibitors” (2021).

For this assay, the target named is T1, Kinesin-like protein KIF18A (Homo sapiens, UniProt Q8NI77).
T1 sequence (Q8NI77 whole entry): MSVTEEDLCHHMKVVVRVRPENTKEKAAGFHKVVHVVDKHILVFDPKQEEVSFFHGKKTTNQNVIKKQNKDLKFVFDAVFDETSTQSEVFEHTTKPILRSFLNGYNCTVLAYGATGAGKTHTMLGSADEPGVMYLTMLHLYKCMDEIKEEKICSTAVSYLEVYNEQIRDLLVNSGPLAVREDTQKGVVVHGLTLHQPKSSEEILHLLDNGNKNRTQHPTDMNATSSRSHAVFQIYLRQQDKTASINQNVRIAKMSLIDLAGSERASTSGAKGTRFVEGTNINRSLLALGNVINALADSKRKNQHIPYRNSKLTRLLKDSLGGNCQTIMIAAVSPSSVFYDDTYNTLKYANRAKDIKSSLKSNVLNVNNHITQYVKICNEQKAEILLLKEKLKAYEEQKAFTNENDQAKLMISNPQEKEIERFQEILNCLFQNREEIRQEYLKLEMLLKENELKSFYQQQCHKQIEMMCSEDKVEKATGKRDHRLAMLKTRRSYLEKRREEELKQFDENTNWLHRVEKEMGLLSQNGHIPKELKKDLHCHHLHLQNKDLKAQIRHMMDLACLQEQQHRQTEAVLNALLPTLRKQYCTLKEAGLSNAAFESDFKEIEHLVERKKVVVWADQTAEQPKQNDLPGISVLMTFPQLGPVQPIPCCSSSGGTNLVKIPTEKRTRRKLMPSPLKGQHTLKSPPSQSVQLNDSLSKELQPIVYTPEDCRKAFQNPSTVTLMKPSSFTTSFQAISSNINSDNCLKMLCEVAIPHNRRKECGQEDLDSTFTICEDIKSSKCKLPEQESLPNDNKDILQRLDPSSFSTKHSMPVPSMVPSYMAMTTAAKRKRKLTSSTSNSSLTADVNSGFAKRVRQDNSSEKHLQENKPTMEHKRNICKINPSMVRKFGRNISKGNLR
The assay is described as follows: Inhibition of recombinant His-tagged human KIF18A (1 to 467 residues) expressed in baculovirus expression system assessed as inhibition of microtubule-stimulated ATPase activity preincubated for 15 mins followed by ATP addition and further incubated for 15 mins and measured after 40 mins by ADP-Glo reagent based assay.

For the compound `CC(C)(C)NS(=O)(=O)c1cccc(NC(=O)c2ccc(CS(=O)(=O)C(C)(C)C)cc2N2CCC3(CC2)CC3)c1`, the IC50 was 76 nM.
With `CC(C)(C)NS(=O)(=O)c1cccc(NC(=O)c2ccc(NS(=O)(=O)CCO)cc2N2CCC3(CC2)CC3)c1` the figure was 51 nM.
With `CC(C)(CO)Nc1cccc(NC(=O)c2ccc(S(=O)(=O)NC3(C)COC3)cc2N2CCC3(CC2)CC3)c1` the figure was 198 nM; with `C[C@@H]1CN(c2cc(F)cc(NC(=O)c3ccc(NS(=O)(=O)CCO)cc3N3CCC4(CC3)CC4)c2)CCO1`, 131 nM; with `CCS(=O)(=O)Cc1ccc(C(=O)Nc2cccc(S(=O)(=O)NC(C)(C)C)c2)c(N2CCC3(CC2)CC3)c1`, 75 nM.
